Results taken from patent publication US20240254119A1 (THIRD HARMONIC BIO, INC., priority 2022, published 2024).
pIC50: −log10 of the molar value.

Tested on: not listed separately
Assay: Three time point assay for plasma, brain and testes distribution after oral dosing
Type: in vivo, rat
Settings: rat, oral dosing, time point 0.5 h
Experimental: Exemplary compounds were tested for distribution in plasma, brain and testes tissue following oral dosing of the compounds in rats. Procedures and results are described below.
Male SD Rats were group-housed (up to four animals/sex/cage) in polysulfone cages with certified aspen wood bedding during acclimation and study period.
Certified rodent diet and water was provided to all animals ad libitum, unless fasting for study procedures.
Appropriate amount of test article was accurately weighed and mixed with an appropriate volume of vehicle to get a clear solution or a uniform suspension; vortexing or sonication in water bath may also be need. Animals were dosed within four hours after the formulation is prepared.
For PO dosing, the dose formulation was administered via oral gavage following facility SOPs. The dose volume was determined by the animals' body weight collected on the morning of dosing day. The dose was 10 mg/kg.
Each blood collection (about 1 mL per time point at one or more of 0.5 h, 2 h, 3 h, 5.3 h, and 7 h) was performed from jugular vein or other suitable site of each animal into pre-chilled commercial EDTA-K2 tubes and placed on wet ice until centrifugation.
Blood samples were processed for plasma by centrifugation at approximately 4° C., 3,200 g for 10 min. Plasma was collected respectively and transferred into pre-labeled 96 well plate or polypropylene tubes, quick frozen over dry ice and kept at −60° C. or lower until LC-MS/MS analysis.
Rat brain was perfused with PBS to remove blood before harvest.
After perfusion, brain and testis were homogenized using homogenizing buffer (15 mM PBS (pH7.4):MeOH=2:1) at the ratio of 1:9 (1 g tissue with 9 mL buffer, the dilution ratio is 10). The brain homogenate was kept at −60° C. or lower until LC-MS/MS analysis. General sample processing procedure (brain homogenate & testis homogenate) using 96-well plate: • 1). An aliquot of 40 μL unknown sample, calibration standard, quality control and dilution quality control (if have), single blank, and double blank sample was added to the 96-well plate respectively; • 2). Each sample (except the double blank) was quenched with 400 μL of IS1 respectively (double blank sample was quenched with 400 μL of I), and then the mixture was vortex-mixed for 10 min at 800 rpm and centrifuged for 15 min at 3220×g, 4° C.; • 3). An aliquot of 50 μL supernatant was transferred to another clean 96-well plate and centrifuged for 5 min at 3220×g, 4° C., then the supernatant was directly injected for LC-MS/MS analysis.
• 1. A LC-MS/MS method for the quantitative determination of test compound in biological matrix was developed under Non-GLP compliance. • 2. A calibration curve with at least 6 non-zero calibration standards was applied for the method including LLOQ. • 3. A set of QCs consisting of low, middle, and high concentrations were applied for the method. • 4. N in 1 cassette LC-MS/MS method was developed for samples coming from different studies and the interference among all cassette analytes was evaluated during the method development. • 5. Cassette administration assay was performed if the mass difference (Δmass) among different analytes was more than 4 Da. In this case, interference evaluation was not necessary.
• 1. If sample number within a batch was ≤12, at least one set of standard curve separated with two parts through begin and end of the sequence, was included in the run, and QCs were not required. The recommended injection order was C8, C6, C4, C2, study samples, C7, C5, C3, C1. • 2. If sample number within a batch was >12, one standard curve and two sets of QCs with low, middle and high concentrations were applied for bioanalysis. Meanwhile, QCs number should be more than 5% of study sample number. • 3. Samples with the same types of matrix in different studies were quantified in one analysis run by using the developed N in 1 cassette LC-MS/MS method. • 4. […]

SMILES	Brain concentration [ng/g]	Kp brain/plasma	Kp testes/plasma	Plasma concentration [µg/mL]	Testes concentration [ng/g]
Cc1ccc(-c2noc(CC(O)C(F)F)n2)cc1NC(=O)c1cnc2ccccn12 (centres unmarked) [Compound I-114]	106	0.07	0.17	1.54	256

Same assay, conditions: rat, oral dosing, time point 2 h

Brain concentration [ng/g]	Kp brain/plasma	Kp testes/plasma	Plasma concentration [µg/mL]	Testes concentration [ng/g]	SMILES
377	0.18	0.49	2.08	1020	Cc1ccc(-c2noc([C@H]3C[C@@H]3F)n2)cc1NC(=O)c1cnc2cc(N3CCC3)ccn12 [Compound I-295]
63	0.03	0.91	2.03	1830	Cc1ccc(-c2noc(C3CCS(=O)(=O)C3)n2)cc1NC(=O)c1cnc2ccccn12 (racemic) [Compound I-389]
21.4	0.53	1.49	0.0406	60.7	Cc1ccc(-c2noc([C@H]3C[C@@H]3F)n2)cc1NC(=O)c1cnc2ccc(C#N)cn12 [Compound I-384]
82.4	0.21	1.19	0.389	464	Cc1ccc(-c2noc(C3(N)CC4(CC(F)(F)C4)C3)n2)cc1NC(=O)c1cnc2ccccn12 [Compound I-307]
0	–	0.86	0.117	100	Cc1ccc(-c2noc(C3CCS(=O)(=O)N3)n2)cc1NC(=O)c1cnc2ccccn12 (racemic) [Compound I-330]
25.6	0.06	0.09	0.422	39.3	Cc1ccc(-c2noc([C@@H](C)O)n2)cc1NC(=O)c1cnc2ccccn12 [Compound I-270]
25.4	0.42	0.93	0.0603	56.2	Cc1ccc(-c2noc(C3(C)CC(F)(F)CN3)n2)cc1NC(=O)c1cnc2ccccn12 (racemic) [Compound I-328]
101	0.47	0.92	0.216	198	Cc1cc(C)cc(Nc2ccc3ncc(C(=O)Nc4cc(-c5noc([C@H]6C[C@@H]6F)n5)ccc4C)n3c2)c1 [Compound I-299]
28.2	0.06	0.09	0.477	44.8	Cc1ccc(-c2noc(C3(O)CC(F)(F)C3)n2)cc1NC(=O)c1cnc2ccccn12 [Compound I-380]
46	0.06	0.13	0.815	104	Cc1ccc(-c2noc(CC(C)O)n2)cc1NC(=O)c1cnc2ccccn12 (racemic) [Compound I-363]
3660	1.64	1.35	2.23	3010	O=C(Nc1cc(-c2noc([C@H]3C[C@@H]3F)n2)ccc1Br)c1cnc2ccccn12 [Compound I-340]

SMILES	Brain concentration [ng/g]	Kp brain/plasma	Kp testes/plasma	Plasma concentration [µg/mL]	Testes concentration [ng/g]
Cc1ccc(-c2noc(C(C)NS(C)(=O)=O)n2)cc1NC(=O)c1cnc2ccccn12 (single isomer, unassigned) [Compound I-238]	0	–	0.17	0.791	131
Cc1ccc(-c2noc(C(C)NS(C)(=O)=O)n2)cc1NC(=O)c1cnc2ccccn12 (single isomer, unassigned) [Compound I-237]	0	–	0.18	1.09	192
Cc1ccc(-c2noc(CC(O)C(F)F)n2)cc1NC(=O)c1cnc2ccccn12 (centres unmarked) [Compound I-114]	113	0.07	0.29	1.68	482
Cc1ccc(-c2noc([C@H](C)O)n2)cc1NC(=O)c1cnc2ccccn12 [Compound I-271]	325	0.18	0.58	1.76	1020

Same assay, conditions: rat, oral dosing, time point 7 h

SMILES	Brain concentration [ng/g]	Kp brain/plasma	Kp testes/plasma	Plasma concentration [µg/mL]	Testes concentration [ng/g]
Cc1ccc(-c2noc(CC(O)C(F)F)n2)cc1NC(=O)c1cnc2ccccn12 (centres unmarked) [Compound I-114]	45.5	0.07	0.38	0.693	248

Same assay, conditions: result in words

SMILES	brain penetration as indicated by Kp (Cbrain/Cplasma)
Cc1ccc(-c2noc(CC(O)C(F)F)n2)cc1NC(=O)c1cnc2ccccn12 (centres unmarked) [Compound I-114]	do not significantly penetrate the brain or minimally penetrate the brain

Molecular target: T1, wtKIT (Homo sapiens, UniProt P10721)
T1 construct: 1888289AM in the reaction mixtures
T1 sequence (P10721 26-976): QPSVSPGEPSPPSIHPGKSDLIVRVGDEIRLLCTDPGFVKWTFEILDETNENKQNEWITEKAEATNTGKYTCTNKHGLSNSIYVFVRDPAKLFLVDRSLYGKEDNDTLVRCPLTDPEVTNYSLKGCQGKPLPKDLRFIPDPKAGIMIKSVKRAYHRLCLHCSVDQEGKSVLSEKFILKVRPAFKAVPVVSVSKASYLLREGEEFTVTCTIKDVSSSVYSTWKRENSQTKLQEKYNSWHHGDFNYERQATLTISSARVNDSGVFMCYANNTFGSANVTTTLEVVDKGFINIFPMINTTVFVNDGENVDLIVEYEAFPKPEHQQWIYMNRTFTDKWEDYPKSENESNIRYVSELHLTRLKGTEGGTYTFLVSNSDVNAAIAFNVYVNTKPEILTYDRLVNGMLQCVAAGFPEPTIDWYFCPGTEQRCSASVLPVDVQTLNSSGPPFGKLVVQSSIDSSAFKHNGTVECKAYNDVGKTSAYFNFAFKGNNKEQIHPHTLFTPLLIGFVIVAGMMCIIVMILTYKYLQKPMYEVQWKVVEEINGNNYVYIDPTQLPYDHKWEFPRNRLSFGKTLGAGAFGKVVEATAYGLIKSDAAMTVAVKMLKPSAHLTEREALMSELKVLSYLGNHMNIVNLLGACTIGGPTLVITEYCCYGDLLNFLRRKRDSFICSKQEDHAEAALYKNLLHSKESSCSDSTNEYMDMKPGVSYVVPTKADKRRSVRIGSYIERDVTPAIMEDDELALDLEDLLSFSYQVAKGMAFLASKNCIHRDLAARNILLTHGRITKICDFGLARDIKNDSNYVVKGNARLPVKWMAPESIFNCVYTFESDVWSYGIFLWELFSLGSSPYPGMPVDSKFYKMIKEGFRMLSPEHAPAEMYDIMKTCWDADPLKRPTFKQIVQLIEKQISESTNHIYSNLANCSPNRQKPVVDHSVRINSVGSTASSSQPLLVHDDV
Assay: HTRF biochemical assay, wtKIT (phosphorylation of a peptide substrate)
Settings: Table 4
Summary of the method: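 wtKIT (5.0 nM) phosphorylating 1 µM FAM-labelled peptide with 400 µM ATP and 10 mM MnCl2 in 100 mM HEPES pH 7.5, 1% DMSO, 3 h at 25 °C. EDTA quench; phosphopeptide detected with anti-phosphotyrosine antibody by HTRF. Enzyme titrated for 10-20% substrate conversion.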

SMILES	pIC50
Cc1ccc(-c2noc(C(C)NS(C)(=O)=O)n2)cc1NC(=O)c1cnc2ccccn12 (single isomer, unassigned) [Compound I-238]	6.30 to 7.30
Cc1ccc(-c2noc(C(C)NS(C)(=O)=O)n2)cc1NC(=O)c1cnc2ccccn12 (single isomer, unassigned) [Compound I-237]	6.30 to 7.30
CCCS(=O)(=O)N1CC(c2nc(-c3ccc(Cl)c(NC(=O)c4cnc5ccccn45)c3)no2)C1 [Compound I-220]	≥ 7.30
Cc1nc(-c2ccc(C)c(NC(=O)c3cnc4ccc(N(C)C)cn34)c2)no1 [Compound I-205]	≥ 7.30
Cc1ccc(-c2noc(CC(O)C(F)F)n2)cc1NC(=O)c1cnc2ccccn12 (centres unmarked) [Compound I-114]	≥ 7.30
COCCS(=O)(=O)N1CC(c2nc(-c3ccc(C)c(NC(=O)c4cnc5ccccn45)c3)no2)C1 [Compound I-235]	6.30 to 7.30
Cc1ccc(-c2noc([C@H]3C[C@@H]3F)n2)cc1NC(=O)c1cnn2ccccc12 [Compound I-109]	≥ 7.30
CCOc1ccn2c(C(=O)Nc3cc(-c4noc([C@H]5C[C@@H]5F)n4)ccc3C)cnc2c1 [Compound I-93]	≥ 7.30
COc1ccn2c(C(=O)Nc3cc(-c4noc(C[C@H](C)O)n4)ccc3C)cnc2c1 [Compound I-94]	≥ 7.30
Cc1ccc(-c2noc(C3CCN3)n2)cc1NC(=O)c1cnc2ccccn12 (racemic) [Compound I-394]	6.30 to 7.30
COC(=O)N1CC(c2nc(-c3ccc(C)c(NC(=O)c4cnc5cc(OC[C@H](C)O)ccn45)c3)no2)C1 [Compound I-262]	≥ 7.30
Cc1ccc(-c2noc([C@H]3C[C@@H]3F)n2)cc1NC(=O)c1cnc2ccc(F)cn12 [Compound I-288]	≥ 7.30
COc1ccc2ncc(C(=O)Nc3cc(-c4noc(C[C@@H](C)O)n4)ccc3C)n2c1 [Compound I-119]	≥ 7.30
COc1ccn2c(C(=O)Nc3cc(-c4noc(CC5CC(F)(F)C5)n4)ccc3C)cnc2c1 [Compound I-91]	≥ 7.30
COc1ccn2c(C(=O)Nc3cc(-c4noc(C5CC(F)(F)C5)n4)ccc3C)cnc2c1 [Compound I-96]	≥ 7.30
Cc1ccc(-c2cnc(N3CC(F)(F)C3)o2)cc1NC(=O)c1cnc2ccccn12 [Compound I-213]	6.30 to 7.30
Cc1ccc(-c2noc(CCO)n2)cc1NC(=O)c1cnc2ccccn12 [Compound I-306]	6.30 to 7.30
Cc1ccc(-c2noc(CC(C)(C)O)n2)cc1NC(=O)c1cnc2ccccn12 [Compound I-336]	6.30 to 7.30
COC(=O)N1CC(c2nc(-c3ccc(C)c(NC(=O)c4cnc5cc(O[C@@H](C)CO)ccn45)c3)no2)C1 (single isomer, unassigned) [Compound I-217]	≥ 7.30
COC(=O)N1CC(c2nc(-c3ccc(C)c(NC(=O)c4cnc5cc(OC[C@@H](C)O)ccn45)c3)no2)C1 [Compound I-263]	≥ 7.30
Cc1ccc(-c2noc(CC(O)C(F)F)n2)cc1NC(=O)c1cnc2ccccn12 (centres unmarked) [Compound I-122]	≥ 7.30
